Assay results: patent US20030004165A1, “Polyazanaphthalene compounds and pharmaceutical use thereof” (AJINOMOTO CO. INC, priority 1999, published 2003)

Tests used:
[1] = tested on: MMP-3 (stromelysin-1) production by human joint normal synovial interstitial cells; experiment: Inhibition of IL-1β-induced MMP-3 production from synovial cells; format: cell-based; settings: IL-1β 0.5 ng/ml stimulation, 16 to 18 hours, MMP-3 in culture fluid
Experimental: Evaluation of Inhibiting Production of Matrix Metalloprotease (MMP) Collected From Synovial Cells
The human joint normal synovial interstitial cells (cell System-SS cells, Dainippon Pharmaceutical Co., Ltd.) were seeded on a 96-well plate in a concentration of 1×10^4 cells/well and cultured overnight. 30 minutes after the addition of the subject pharmaceutical compounds in a proper concentration, IL-1β was added to each well so as to obtain the final concentration of 0.5 ng/ml. After culturing overnight (16 to 18 hours) again, a culture fluid was collected and the amount of MMP-3 (stromelysin-1) in the culture fluid was determined. MMP-3 was determined with a test kit for determining stromelysin-1 (SL) in serum (Fuji Chemical Industries Ltd.), in accordance with an instruction book attached to the kit. When no stimulation was seen, the production amount was defined as 0% and when only […] stimulation was seen, the amount was defined as 100%.

[2] = tested on: TNF α production by Balb/c mouse peritoneal cells; experiment: Inhibition of LPS-induced TNF α production from mouse peritoneal cells; format: cell-based; settings: LPS 10 μg/ml stimulation, 16 to 18 hours, TNF α by sandwich ELISA
Experimental: Evaluation of Inhibiting Production of Tumor Necrosis Factors (TNF)
RPMI medium was injected into a peritoneal cavity of Balb/c mouse (Charles River Japan, Inc.) and the peritoneal cells were collected. The peritoneal cells were seeded on a 96-well plate in a concentration of 1×10^4 cells/well. 30 minutes after the addition of the subject pharmaceutical compounds in a proper concentration, LPS (sigma, L-5886) was added to each well so as to obtain the final concentration of 10 μg/ml. After culturing overnight (16 to 18 hours) again, a culture fluid was collected and the amount of TNF α in the culture fluid was determined. Mouse TNF α was determined by the means of a sandwitch ELISA and anti-mouse TNF a hamster monoclonal antibody (Genzyme 1221-00) was used as the first antibody, anti-mouse TNF α rabbit polyclonal antibody (Genzyme, IP-400) as the second antibody, and alkaliphosphatase conjugate anti-rabbit IgG polyclonal goat antibody as the third antibody. Then, optical absorbance of alkaliphosphatase substrate (p-nitrophosphate) was determined and converted into the production amount. When no stimulation was seen, the production amount was defined as 0% and when only […] stimulation was seen, the amount was defined as 100%.

| SMILES | TNF Inhibition Activity (IC50) [2] [µg/mL] | MMP Inhibition Activity (IC50) [1] [µg/mL] |
| --- | --- | --- |
| COc1ccc(-c2cnc3ccncc3c2)cc1OC1CCCC1 [Example 26, 3-(3-Cyclopentyloxy-4-Methoxyphenyl)-1,6-Naphthylidine] | 0.01 | – |
| COc1ccc(-c2cnc3cc(N)ncc3c2)cc1OC.Cl [Example 18, 7-Amino-3-(3,4-Dimethoxyphenyl)-1,6-Naphthylidine Hydrochloride] | 0.6 | 0.31 |
| COc1ccc(-c2cnc3ccncc3c2)cc1OC [Example 1, 3-(3,4-Dimethoxyphenyl)-1,6-Naphtylidine] | 0.5 | 1.25 |
| COc1ccc(-c2cnc3ccnc(N)c3c2)cc1OC [Example 20, 5-Amino-3-(3,4-Dimethoxyphenyl)-1,6-Naphthylidine] | 0.3 | 0.16 |

Continued, in another order:

| TNF Inhibition Activity (IC50) [2] [µg/mL] | SMILES | MMP Inhibition Activity (IC50) [1] [µg/mL] |
| --- | --- | --- |
| 0.6 | COc1ccc(-c2ccc3cnccc3n2)cc1OC [Example 24, 2-(3,4-Dimethoxyphenyl)-1,6-Naphthylidine] | 1.25 |
| 0.1 | COc1ccc(-c2cnc3ncccc3c2)cc1OC [Example 23, 3-(3,4-Dimethoxyphenyl)-1,8-Naphthylidine] | – |
| 1 | COc1ccc(-c2cnc3ccnc(Cl)c3c2)cc1OC [Example 19, 5-Chloro-3-(3,4-Dimethoxyphenyl)-1,6-Naphthylidine] | – |
| 0.02 | COc1ccc(-c2cnc3cnccc3c2)cc1OC [Example 22, 3-(3,4-Dimethoxyphenyl)-1,7-Naphthylidine] | 1.25 |
